Laboratory results as given in ChEMBL document CHEMBL4177682, “Indirubin derivatives protect against endoplasmic reticulum stress-induced cytotoxicity and down-regulate CHOP levels in HT22 cells” (Bioorg Med Chem Lett, 2017).
Calls of active or inactive are those of the source. The calls are words filed in the database; no cut-off is given here.

Tests used:
HT-22 [1] = assay: Cytoprotective activity against tunicamycin-induced cell death in mouse HT22 cells after 24 hrs by MTT assay; assay type: functional, cell-based; conditions: for EC50: HT-22, 24 h
HT-22 [2] = assay: Cytotoxicity against mouse HT22 cells at 20 uM after 24 hrs by MTT assay; assay type: cell-based; conditions: ht-22, 24 h
HT-22 [3] = assay: Cytoprotective activity against tunicamycin-induced cell death in mouse HT22 cells at 20 uM after 24 hrs by MTT assay; assay type: functional, cell-based
HT-22 [4] = assay: Cytoprotective activity against tunicamycin-induced cell death in mouse HT22 cells assessed as preservation of spindle shape morphology after 24 hrs by MTT assay; assay type: functional, cell-based
HT-22 [5] = assay: Effect on CHOP expression in mouse HT22 cells at 20 uM after 12 hrs by Western blot analysis; assay type: cell-based; conditions: ht-22, 12 h
HT-22 [6] = assay: Suppression of TM-induced increase in CHOP expression in mouse HT22 cells at 20 uM after 12 hrs by Western blot analysis; assay type: functional, cell-based

SMILES | Activity (HT-22 [1]) | Activity (HT-22 [2]) | Activity (HT-22 [3]) | EC50 (HT-22 [1]) [µM] | Activity (HT-22 [4]) | Activity (HT-22 [5]) | Activity (HT-22 [6])
Cc1ccc2c(c1)C(=O)/C(=C1/C(=O)Nc3ccccc31)N2 | Dose-dependent effect | – | – | – | – | – | –
O=C1Nc2ccccc2/C1=C1/Nc2ccccc2C1=O [INDIRUBIN] | Dose-dependent effect | Toxic | – | – | – | – | –
COc1ccc2c(c1)N/C(=C1\C(=O)Nc3ccccc31)C2=O | Dose-dependent effect | – | – | – | – | – | –
CC(C)(C)c1ccc2c(c1)/C(=C1/Nc3ccccc3/C1=N\O)C(=O)N2 | Dose-dependent effect | – | Active | – | – | – | –
Cc1ccc2c(c1)/C(=C1/Nc3ccccc3C1=O)C(=O)N2 | Dose-dependent effect | Non-Toxic | Active | 30.8 | Active | Non-Toxic | Active
O=C1Nc2ccccc2/C1=C1/Nc2ccccc2/C1=N\OCC1CO1 (stereo not given) | Dose-dependent effect | – | – | – | – | – | –
COc1ccc2c(c1)C(=O)/C(=C1/C(=O)Nc3ccccc31)N2 | Dose-dependent effect | – | – | – | – | – | –
O=C(O)Cc1ccc2c(c1)/C(=C1/Nc3ccccc3C1=O)C(=O)N2 | Dose-dependent effect | – | – | – | – | – | –
CN1C(=O)/C(=C2\Nc3ccccc3\C2=N/O)c2ccc(Br)cc21 | Dose-dependent effect | – | Active | – | – | – | –
COc1ccc2c(c1)C(=N\O)/C(=C1/C(=O)Nc3ccccc31)N2 | Dose-dependent effect | – | Active | – | – | – | –
CCc1ccc2c(c1)/C(=C1/Nc3ccccc3/C1=N\O)C(=O)N2 | Dose-dependent effect | – | Active | – | – | – | –
O=C1Nc2cc(Br)ccc2/C1=C1/Nc2ccccc2C1=O | – | – | inactive | – | – | – | –
O=C1Nc2cc(Br)ccc2/C1=C1/Nc2ccccc2/C1=N\O [6BIO] | – | Toxic | inactive | – | – | – | –
O=C1Nc2ccccc2/C1=C1/Nc2cc(Br)ccc2/C1=N\O | Dose-dependent effect | – | Active | – | – | – | –
COc1cccc2c1NC(=O)/C2=C1\Nc2ccccc2\C1=N/O | Dose-dependent effect | – | Active | – | – | – | –
O=C1Nc2ccccc2/C1=C1/Nc2ccc(Br)cc2C1=O | Dose-dependent effect | – | – | – | – | – | –
COc1ccc2c(c1)NC(=O)/C2=C1\Nc2ccccc2\C1=N/O | Dose-dependent effect | – | Active | – | – | – | –
O=C1Nc2ccc(O)cc2/C1=C1/Nc2ccccc2C1=O | Dose-dependent effect | – | – | – | – | – | –
COc1ccc2c(c1)/C(=C1/Nc3ccccc3/C1=N\O)C(=O)N2 | Dose-dependent effect | – | Active | – | – | – | –
CCc1ccc2c(c1)/C(=C1/Nc3ccccc3C1=O)C(=O)N2 | Dose-dependent effect | – | – | – | – | – | –
O=C1Nc2cc(O)ccc2/C1=C1/Nc2ccccc2C1=O | Dose-dependent effect | Non-Toxic | Active | 23.7 | Active | Non-Toxic | Active
O=C1Nc2ccc(Br)cc2/C1=C1/Nc2ccc(Br)cc2C1=O | Dose-dependent effect | Non-Toxic | Active | 21.3 | Active | Non-Toxic | Active

SMILES | Activity (HT-22 [1]) | Activity (HT-22 [2]) | Activity (HT-22 [3]) | EC50 (HT-22 [1]) [µM] | Activity (HT-22 [4]) | Activity (HT-22 [5]) | Activity (HT-22 [6])
O=C1Nc2ccc(Br)cc2/C1=C1/Nc2ccc(Br)cc2/C1=N\O | Dose-dependent effect | Toxic | Active | – | – | – | –
COc1cc2c(cc1OC)/C(=C1/Nc3ccccc3/C1=N\O)C(=O)N2 | Dose-dependent effect | – | Active | – | – | – | –
CC(C)c1ccc2c(c1)/C(=C1/Nc3ccccc3/C1=N\O)C(=O)N2 | Dose-dependent effect | – | Active | – | – | – | –
COc1ccc2c(c1)NC(=O)/C2=C1\Nc2ccccc2C1=O | Dose-dependent effect | – | – | – | – | – | –
O=C1Nc2ccccc2/C1=C1/Nc2cc(Br)ccc2C1=O | Dose-dependent effect | – | – | – | – | – | –
O=C1Nc2ccccc2/C1=C1/Nc2ccc(Br)cc2/C1=N\O | Dose-dependent effect | – | Active | – | – | – | –
CC(C)c1ccc2c(c1)/C(=C1/Nc3ccccc3C1=O)C(=O)N2 | Dose-dependent effect | – | – | – | – | – | –
O=C1Nc2c(O)cccc2/C1=C1/Nc2ccccc2C1=O | Dose-dependent effect | – | – | – | – | – | –
O=C1Nc2c(Br)cccc2/C1=C1/Nc2ccccc2C1=O | – | – | inactive | – | – | – | –
COc1cccc2c1NC(=O)/C2=C1\Nc2ccccc2C1=O | Dose-dependent effect | – | – | – | – | – | –
O=C1Nc2ccc(Br)cc2/C1=C1/Nc2ccccc2C1=O | Dose-dependent effect | Non-Toxic | Active | 36 | Active | Non-Toxic | Active
COc1cc2c(cc1OC)/C(=C1/Nc3ccccc3C1=O)C(=O)N2 | Dose-dependent effect | – | – | – | – | – | –
COc1ccc2c(c1)C(=O)/C(=C1/C(=O)Nc3ccc(OC)cc31)N2 | Dose-dependent effect | Non-Toxic | Active | 30 | Active | Non-Toxic | Active
Cc1ccc2c(c1)/C(=C1/Nc3ccccc3/C1=N\O)C(=O)N2 | Dose-dependent effect | – | Active | – | – | – | –
CC(C)(C)c1ccc2c(c1)/C(=C1/Nc3ccccc3C1=O)C(=O)N2 | Dose-dependent effect | – | – | – | – | – | –
O=C1Nc2ccc(Br)cc2/C1=C1/Nc2ccccc2/C1=N\O [INDIRUBIN 2] | Dose-dependent effect | Non-Toxic | Active | 85.8 | Active | Non-Toxic | Active
CN1C(=O)/C(=C2\Nc3ccccc3C2=O)c2ccc(Br)cc21 | – | – | inactive | – | – | – | –
CCc1ccc2c(c1)C(=O)/C(=C1/C(=O)Nc3ccccc31)N2 | Dose-dependent effect | Non-Toxic | Active | 24.5 | Active | Non-Toxic | Active
O=C1Nc2ccccc2/C1=C1/Nc2ccccc2/C1=N\O | Dose-dependent effect | Toxic | Active | – | – | – | –
COc1ccc2c(c1)/C(=C1/Nc3ccc(OC)cc3/C1=N\O)C(=O)N2 | Dose-dependent effect | – | – | – | – | – | –
CC(=O)N1C(=O)/C(=C2\Nc3ccccc3C2=O)c2ccccc21 | Dose-dependent effect | Non-Toxic | Active | 9.8 | Active | Non-Toxic | Active
COc1ccc2c(c1)/C(=C1/Nc3ccccc3C1=O)C(=O)N2 | Dose-dependent effect | – | – | – | – | – | –
